Measurements reported in US6852673B2, “Herbicidal pyridine compounds” (BASF Aktiengesellschaft, priority 1998, dated 2005).

Key:
Type in all cases: in vivo
Solanum nigrum (SOLNI) = assay: Post-emergence herbicidal evaluation, black nightshade; details: rated 2 to 4 weeks after treatment
Method: (§1) [table] [table] […] These acetone solutions are diluted with water and the resulting formulations applied at dosage levels equivalent of about 0.03 to 0.4 kg per hectare of test compound per pot. After spraying the plants are placed on greenhouse benches and are cared for in the usual manner, commensurate with conventional greenhouse practices. From 2 to 4 weeks after treatment, the seedling plants are examined and rated according to the rating system provided above. A rating 0 indicates growth as untreated control, a rating 9 indicates death.

[1] = tested on: Echinochloa grus galli (ECHCG); assay: Pre-emergence herbicidal evaluation, barnyard grass
Description: (§2) The pre-emergence herbicidal activity of the compounds of the present invention is exemplified by the following test in which the seeds of a variety of monocotyledonous and dicotyledonous plants are seperately mixed with potting soil and planted on top of approximately one inch of soil in separate pots. After planting, the pots are sprayed with the selected aqueous acetone solution containing test compound in sufficient quantity to provide the equivalent of about 0.0125 to 0.4 kg per hectare of test compound per pot. The treated pots are then placed on greenhouse benches, watered and cared for in accordance with conventional greenhouse procedures. From 2 to 4 weeks after treatment, the tests are terminated and each pot is examined and rated according to the rating system set forth below.

Oryza sativum (ORYSA) [2] = assay: Post-emergence herbicidal evaluation, rice; details: rated 2 to 4 weeks after treatment
Method: as §1

[3] = tested on: Matricaria inodora (MATIN); assay: Pre-emergence herbicidal evaluation, mayweed
Description: as §2

[4] = tested on: Matricaria inodora (MATIN); assay: Post-emergence herbicidal evaluation, mayweed; details: rated 2 to 4 weeks after treatment
Method: as §1

[5] = tested on: Abutilon theophrasti (ABUTH); assay: Post-emergence herbicidal evaluation, velvetleaf; details: rated 2 to 4 weeks after treatment
Method: as §1

Hordeum vulgare (HORVW) [6] = assay: Post-emergence herbicidal evaluation, winter barley; details: rated 2 to 4 weeks after treatment
Method: as §1

[7] = tested on: Triticum aestivum (TRZAW); assay: Post-emergence herbicidal evaluation, winter wheat; details: rated 2 to 4 weeks after treatment
Method: as §1

Galium aparine (GALAP) = assay: Post-emergence herbicidal evaluation, cleaver; details: rated 2 to 4 weeks after treatment
Method: as §1

weeds = assay: Post-emergence herbicidal evaluation, overall weed control; details: in barley at crop selective doses
Method: as §1

Oryza sativum (ORYSA) [8] = assay: Pre-emergence herbicidal evaluation, rice
Description: as §2

Setaria viridis (SETVI) [9] = assay: Pre-emergence herbicidal evaluation, green foxtail
Description: as §2

[10] = tested on: Ipomoea hederacea (IPOHE); assay: Post-emergence herbicidal evaluation, morning glory; details: rated 2 to 4 weeks after treatment
Method: as §1

Lamium purpureum (LAMPU) = assay: Post-emergence herbicidal evaluation, purple deadnettle; details: rated 2 to 4 weeks after treatment
Method: as §1

Hordeum vulgare (HORVW) [11] = assay: Pre-emergence herbicidal evaluation, winter barley
Description: as §2

[12] = tested on: Ambrosia artemiisifolia (AMBEL); assay: Pre-emergence herbicidal evaluation, ragweed
Description: as §2

[13] = tested on: Abutilon theophrasti (ABUTH); assay: Pre-emergence herbicidal evaluation, velvetleaf
Description: as §2

Setaria viridis (SETVI) [14] = assay: Post-emergence herbicidal evaluation, green foxtail; details: for SETVI rating: rated 2 to 4 weeks after treatment
Method: as §1

`Cc1cc(OCC(F)(F)C(F)(F)F)nc(Oc2cc(C(F)(F)F)nn2C)c1` [Example 7] was tested, and the SOLNI rating (Solanum nigrum (SOLNI); dose 0.03 kg/ha) was 0 (0 - No effect), the SOLNI rating (Solanum nigrum (SOLNI); dose 0.1 kg/ha) was 0 (0 - No effect) and the SOLNI rating (Solanum nigrum (SOLNI); dose 0.4 kg/ha) was 0 (0 - No effect). The ECHCG rating ([1]; dose 0.013 kg/ha) was 0 (0 - No effect), the ECHCG rating ([1]; dose 0.025 kg/ha) was 1 (1 - Trace effect) and the ECHCG rating ([1]; dose 0.1 kg/ha) was 4 (4 - Injury). The ECHCG rating ([1]; dose 0.4 kg/ha) was 7 (7 - Good herbicidal effect), the ORYSA rating (Oryza sativum (ORYSA) [2]; dose 0.03 kg/ha) was 3 (3 - Moderate effect) and the ORYSA rating (Oryza sativum (ORYSA) [2]; dose 0.1 kg/ha) was 3 (3 - Moderate effect). For the same molecule, the ORYSA rating (Oryza sativum (ORYSA) [2]; dose 0.4 kg/ha) was 3 (3 - Moderate effect), the MATIN rating ([3]; dose 0.013 kg/ha) was 0 (0 - No effect) and the MATIN rating ([3]; dose 0.025 kg/ha) was 3 (3 - Moderate effect). For the same molecule, the MATIN rating ([3]; dose 0.1 kg/ha) was 8 (8 - Approaching complete kill), the MATIN rating ([3]; dose 0.4 kg/ha) was 9 (9 - Complete kill) and the MATIN rating ([4]; dose 0.03 kg/ha) was 2 (2 - Slight effect). For the same molecule, the MATIN rating ([4]; dose 0.1 kg/ha) was 7 (7 - Good herbicidal effect), the MATIN rating ([4]; dose 0.4 kg/ha) was 8 (8 - Approaching complete kill) and the ABUTH rating ([5]; dose 0.03 kg/ha) was 2 (2 - Slight effect). The ABUTH rating ([5]; dose 0.4 kg/ha) was 2 (2 - Slight effect), the HORVW rating (Hordeum vulgare (HORVW) [6]; dose 0.03 kg/ha) was 2 (2 - Slight effect) and the HORVW rating (Hordeum vulgare (HORVW) [6]; dose 0.1 kg/ha) was 3 (3 - Moderate effect). The HORVW rating (Hordeum vulgare (HORVW) [6]; dose 0.4 kg/ha) was 3 (3 - Moderate effect), the TRZAW rating ([7]; dose 0.03 kg/ha) was 2 (2 - Slight effect) and the TRZAW rating ([7]; dose 0.1 kg/ha) was 2 (2 - Slight effect). The TRZAW rating ([7]; dose 0.4 kg/ha) was 3 (3 - Moderate effect), the GALAP rating (Galium aparine (GALAP); dose 0.03 kg/ha) was 3 (3 - Moderate effect) and the GALAP rating (Galium aparine (GALAP); dose 0.1 kg/ha) was 5 (5 - Definite injury). For the same molecule, the GALAP rating (Galium aparine (GALAP); dose 0.4 kg/ha) was 5 (5 - Definite injury), the broad-leaved weed control (weeds) was “effective” and the ORYSA rating (Oryza sativum (ORYSA) [8]; dose 0.013 kg/ha) was 0 (0 - No effect). For the same molecule, the ORYSA rating (Oryza sativum (ORYSA) [8]; dose 0.025 kg/ha) was 1 (1 - Trace effect), the ORYSA rating (Oryza sativum (ORYSA) [8]; dose 0.1 kg/ha) was 1 (1 - Trace effect) and the ORYSA rating (Oryza sativum (ORYSA) [8]; dose 0.4 kg/ha) was 2 (2 - Slight effect). For the same molecule, the SETVI rating (Setaria viridis (SETVI) [9]; dose 0.013 kg/ha) was 2 (2 - Slight effect), the SETVI rating (Setaria viridis (SETVI) [9]; dose 0.025 kg/ha) was 2 (2 - Slight effect) and the SETVI rating (Setaria viridis (SETVI) [9]; dose 0.1 kg/ha) was 5 (5 - Definite injury). The SETVI rating (Setaria viridis (SETVI) [9]; dose 0.4 kg/ha) was 8 (8 - Approaching complete kill), the IPOHE rating ([10]; dose 0.03 kg/ha) was 3 (3 - Moderate effect) and the IPOHE rating ([10]; dose 0.1 kg/ha) was 9 (9 - Complete kill). The IPOHE rating ([10]; dose 0.4 kg/ha) was 9 (9 - Complete kill), the LAMPU rating (Lamium purpureum (LAMPU); dose 0.03 kg/ha) was 0 (0 - No effect) and the LAMPU rating (Lamium purpureum (LAMPU); dose 0.1 kg/ha) was 2 (2 - Slight effect). The LAMPU rating (Lamium purpureum (LAMPU); dose 0.4 kg/ha) was 6 (6 - Herbicidal effect), the HORVW rating (Hordeum vulgare (HORVW) [11]; dose 0.013 kg/ha) was 0 (0 - No effect) and the HORVW rating (Hordeum vulgare (HORVW) [11]; dose 0.025 kg/ha) was 0 (0 - No effect). For the same molecule, the HORVW rating (Hordeum vulgare (HORVW) [11]; dose 0.1 kg/ha) was 2 (2 - Slight effect), the HORVW rating (Hordeum vulgare (HORVW) [11]; dose 0.4 kg/ha) was 3 (3 - Moderate effect) and the AMBEL rating ([12]; dose 0.025 kg/ha) was 1 (1 - Trace effect). The AMBEL rating ([12]; dose 0.1 kg/ha) was 6 (6 - Herbicidal effect), the AMBEL rating ([12]; dose 0.4 kg/ha) was 9 (9 - Complete kill) and the ABUTH rating ([13]; dose 0.025 kg/ha) was 0 (0 - No effect). The ABUTH rating ([13]; dose 0.1 kg/ha) was 1 (1 - Trace effect), the ABUTH rating ([13]; dose 0.4 kg/ha) was 7 (7 - Good herbicidal effect) and the SETVI rating (Setaria viridis (SETVI) [14]; dose 0.03 kg/ha) was 2 (2 - Slight effect). The SETVI rating (Setaria viridis (SETVI) [14]; dose 0.1 kg/ha) was 4 (4 - Injury), the SETVI rating (Setaria viridis (SETVI) [14]; dose 0.4 kg/ha) was 8 (8 - Approaching complete kill) and the “grass control such as Setaria virides” value (Setaria viridis (SETVI) [14]; in barley at crop selective doses) was “effective”.
